Measured values: ChEMBL document CHEMBL1130961, “The development of novel and selective p56lck tyrosine kinase inhibitors” (Bioorg Med Chem Lett, 1998)

Columns and labels:
[1] = target: Tyrosine-protein kinase Lck (Homo sapiens, UniProt P06239); experiment: Inhibition of p56 Lck tyrosine kinase
[2] = target: cAMP-dependent protein kinase (PKA) (Homo sapiens, UniProt P22694+P17612+P22612); experiment: Inhibition of Protein Kinase A (PKA); format: protein assay
[3] = target: Proto-oncogene tyrosine-protein kinase Src (Homo sapiens, UniProt P12931); experiment: Inhibition of Src tyrosine kinase
Proto-oncogene tyrosine-protein kinase Src, sequence (P12931 2-536 limits assumed): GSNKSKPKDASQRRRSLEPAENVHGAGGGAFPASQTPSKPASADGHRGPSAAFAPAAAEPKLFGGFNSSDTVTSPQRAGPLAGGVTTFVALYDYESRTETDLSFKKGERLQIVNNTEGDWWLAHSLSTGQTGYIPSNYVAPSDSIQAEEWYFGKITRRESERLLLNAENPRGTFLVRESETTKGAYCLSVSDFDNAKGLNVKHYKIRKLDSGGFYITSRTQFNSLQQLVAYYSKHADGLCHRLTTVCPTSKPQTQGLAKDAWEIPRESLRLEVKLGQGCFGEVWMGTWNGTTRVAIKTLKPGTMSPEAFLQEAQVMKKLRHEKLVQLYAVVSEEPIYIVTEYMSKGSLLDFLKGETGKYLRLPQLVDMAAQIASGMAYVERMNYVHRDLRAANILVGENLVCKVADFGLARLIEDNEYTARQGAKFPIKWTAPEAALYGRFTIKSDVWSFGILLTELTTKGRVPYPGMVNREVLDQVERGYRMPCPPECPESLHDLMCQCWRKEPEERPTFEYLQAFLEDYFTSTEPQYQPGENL

Tyrosine-protein kinase Lck, sequence (P06239 whole entry): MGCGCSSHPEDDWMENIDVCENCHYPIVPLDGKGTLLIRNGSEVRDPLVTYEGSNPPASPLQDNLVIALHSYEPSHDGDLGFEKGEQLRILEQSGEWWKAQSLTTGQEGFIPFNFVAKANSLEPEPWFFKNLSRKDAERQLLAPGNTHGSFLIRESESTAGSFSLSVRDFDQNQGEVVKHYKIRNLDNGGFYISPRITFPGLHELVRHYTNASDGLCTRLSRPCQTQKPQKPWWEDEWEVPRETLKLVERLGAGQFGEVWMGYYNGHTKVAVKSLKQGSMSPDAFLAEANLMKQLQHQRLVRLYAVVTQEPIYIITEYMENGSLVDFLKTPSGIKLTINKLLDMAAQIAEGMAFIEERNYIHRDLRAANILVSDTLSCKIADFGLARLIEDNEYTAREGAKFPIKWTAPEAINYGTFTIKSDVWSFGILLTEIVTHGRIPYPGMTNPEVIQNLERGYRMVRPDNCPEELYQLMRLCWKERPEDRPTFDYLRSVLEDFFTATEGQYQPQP

IC50 [1] [nM]	IC50 [2] [µM]	IC50 [3] [µM]	SMILES
5000	–	–	COc1cc(C=C2C(=O)c3cc(Cl)c(Cl)cc3C2=O)ccc1O
880	–	–	COc1ccc2c(c1)C(=O)/C(=C/c1cc(Br)c(O)c(OC)c1)C2=O
1700	–	–	COc1cc(/C=C2\C(=O)c3ccc(N)cc3C2=O)cc(OC)c1O
600	–	–	Nc1ccc2c(c1)C(=O)/C(=C/c1ccc(O)c(O)c1)C2=O
144	10	> 50	COc1ccc2c(c1)C(=O)/C(=C/c1cc(Br)c(O)c(Br)c1)C2=O
1500	–	–	COc1ccc2c(c1)C(=O)/C(=C/c1ccc(O)c(O)c1)C2=O
5000	–	–	O=C1C(=Cc2ccc(O)c(O)c2)C(=O)c2ccccc21
5000	–	–	O=C1/C(=C/c2ccc(O)c(O)c2)C(=O)c2c1cccc2[N+](=O)[O-]
32	8	0.46	Nc1ccc2c(c1)C(=O)/C(=C/c1cc(Br)c(O)c(Br)c1)C2=O

Continued, molecule first:

SMILES	IC50 [1] [nM]	IC50 [2] [µM]	IC50 [3] [µM]
COc1cc(C=C2C(=O)c3cc(Cl)c(Cl)cc3C2=O)cc(Br)c1O	1700	–	–
O=C1/C(=C\c2cc(Br)c(O)c(Br)c2)C(=O)c2cc([N+](=O)[O-])ccc21	> 5000	–	–
Nc1ccc2c(c1)C(=O)/C(=C/c1cc(Br)c(O)c(Br)c1)C2	710	–	–
COc1cc2c(cc1OC)C(=O)C(=Cc1cc(Cl)c(O)c(Cl)c1)C2=O	310	–	–
O=C1/C(=C/c2ccc(O)c(O)c2)C(=O)c2cc([N+](=O)[O-])ccc21	> 5000	–	–
Nc1cccc2c1C(=O)/C(=C\c1cc(Br)c(O)c(Br)c1)C2=O	470	–	–
O=C1/C(=C\c2cc(Br)c(O)c(Br)c2)C(=O)c2cc(Br)ccc21	1000	–	–
O=C1C(=Cc2cc(Br)c(O)c(Br)c2)C(=O)c2ccccc21	740	–	–
O=C1/C(=C/c2cc(Cl)c(O)c(Cl)c2)C(=O)c2c1cccc2[N+](=O)[O-]	1400	–	–
COc1cc2c(cc1OC)C(=O)C(=Cc1cc(Br)c(O)c(Br)c1)C2=O	110	–	–
Nc1ccc2c(c1)C(=O)/C(=C/c1cc(Cl)c(O)c(Cl)c1)C2=O	102	5	3.5
Nc1ccc2c(c1)C/C(=C\c1cc(Br)c(O)c(Br)c1)C2=O	5000	–	–
